Source: patent US20240270762A1, “PENICILLIN-BINDING PROTEIN INHIBITORS” (priority 2021, published 2024)
pIC50: −log10 of the molar value. ≈ marks a conversion by molar mass, not a printed value.

Key:
P. aeruginosa CDC-0095 = experiment: microbe, parasite or virus in culture; type: cell-based; conditions: Pseudomonas aeruginosa, CDC0095, read-out: Minimum inhibitory concentration, P. aeruginosa CDC-0095
[1] = target: T1, PBP3 from Pseudomonas aeruginosa (PAO1) (Pseudomonas aeruginosa, UniProt G3XD46); experiment: Bocillin-FL fluorescence polarization competition binding, P. aeruginosa PBP3; conditions: Binding affinity to P. aeruginosa PBP3; fluorescence polarization competition binding assay using Bocillin-FL; read-out: P. aeruginosa PBP3 Potency
T1 construct: made in house
Method in brief: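 Purified PBPs pre-incubated with inhibitor (E. coli PBP3 1.5 μM, 30 min; P. aeruginosa PBP3 0.75 μM, A. baumannii PBP1a 1 μM and PBP3 0.2 μM, 15 min), then Bocillin-FL 0.1 μM (0.05 μM for PBP1a) added; FP read up to 60 min. EC50 = concentration halving bound Bocillin-FL.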

P. aeruginosa CDC-0054 = experiment: microbe, parasite or virus in culture; type: cell-based; conditions: Pseudomonas aeruginosa, CDC0054, read-out: Minimum inhibitory concentration, P. aeruginosa CDC-0054
[2] = system: B. thailandensis ATCC 700388; experiment: microbe, parasite or virus in culture; type: cell-based; conditions: Burkholderia thailandensis, ATCC700388, read-out: Minimum inhibitory concentration (MIC), B. thailandensis ATCC 700388
P. aeruginosa CDC-0090 = experiment: microbe, parasite or virus in culture; type: cell-based; conditions: Pseudomonas aeruginosa, CDC0090, read-out: Minimum inhibitory concentration, P. aeruginosa CDC-0090
[3] = system: P. aeruginosa (ΔmexAB-oprM); experiment: Broth microdilution MIC in iron-depleted CAMHB (IDM); type: cell-based; conditions: Pseudomonas aeruginosa; iron-depleted CAMHB (IDM); […]; read-out: Minimum inhibitory concentration, P. aeruginosa ΔmexAB-oprM

T1 sequence (G3XD46 whole entry): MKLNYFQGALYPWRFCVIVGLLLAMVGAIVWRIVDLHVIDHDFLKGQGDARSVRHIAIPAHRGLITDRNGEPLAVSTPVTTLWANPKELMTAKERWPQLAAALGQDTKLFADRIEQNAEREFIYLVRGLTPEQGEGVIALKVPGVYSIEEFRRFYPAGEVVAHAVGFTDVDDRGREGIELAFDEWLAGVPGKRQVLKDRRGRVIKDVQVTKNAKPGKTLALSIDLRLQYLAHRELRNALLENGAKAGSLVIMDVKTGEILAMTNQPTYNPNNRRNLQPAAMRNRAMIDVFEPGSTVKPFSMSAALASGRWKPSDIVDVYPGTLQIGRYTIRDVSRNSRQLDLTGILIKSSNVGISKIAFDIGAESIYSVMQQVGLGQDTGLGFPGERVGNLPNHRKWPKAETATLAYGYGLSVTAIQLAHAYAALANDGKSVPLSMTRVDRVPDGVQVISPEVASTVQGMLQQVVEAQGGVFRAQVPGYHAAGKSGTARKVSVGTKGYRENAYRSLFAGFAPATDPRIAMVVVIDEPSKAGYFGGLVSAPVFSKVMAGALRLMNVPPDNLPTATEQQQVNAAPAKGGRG

Structure (SMILES)	MIC (P. aeruginosa CDC-0095) [µg/mL]	pIC50 [1]	MIC (P. aeruginosa CDC-0054) [µg/mL]	MIC [2] [µg/mL]	MIC (P. aeruginosa CDC-0090) [µg/mL]	MIC [3] [µg/mL]
O=C(O)c1c(F)ccc2c1OB(O)[C@@H](NC(=O)[C@H](NC(=O)N1CCN(C3CCN(C(=O)c4cccc(O)c4F)CC3)C1=O)c1cc(F)c(O)c(O)c1Cl)C2 (single isomer, unassigned) [Example 431]	< 1	> 5.00	< 1	< 1	< 1	< 1
O=C(O)c1c(F)ccc2c1OB(O)[C@@H](NC(=O)[C@H](NC(=O)N1CCN(C3CCN(C(=O)Nc4cccc(O)c4Cl)CC3)C(=O)C1=O)c1cc(F)c(O)c(O)c1Cl)C2 [Example 482, (R)-3-((R)-2-(4-(1-((2-chloro-3-hydroxyphenyl)carbamoyl)piperidin-4-yl)-2,3-dioxopiperazine-1-carboxamido)-2-(2-chloro-5-fluoro-3,4-dihydroxyphenyl)acetamido)-7-fluoro-2-hydroxy-3,4-dihydro-2H-benzo[e][1,2]oxaborinine-8-carboxylic acid]	< 1	> 5.00	< 1	< 1	2 to 4 (≈ 2.39 to 4.79 µM)	< 1
O=C(NCCCS(=O)(=O)N1CCN(C(=O)N[C@H](C(=O)N[C@H]2Cc3ccc(F)c(C(=O)O)c3OB2O)c2ccc(P(=O)(O)O)cc2)C1=O)c1ccc(O)c(O)c1Cl (single isomer, unassigned) [Example 169]	> 128	< 3.60	> 128	> 128	> 128	> 128
O=C(O)c1c(F)ccc2c1OB(O)[C@@H](NC(=O)[C@H](NC(=O)N1CCN(C3CCN(C(=O)c4ccc(F)c(O)c4)CC3)C1=O)c1cc(F)c(O)c(O)c1Cl)C2 (single isomer, unassigned) [Example 435]	< 1	> 5.00	< 1	< 1	< 1	< 1
O=C(O)c1c(F)ccc2c1OB(O)[C@@H](NC(=O)[C@H](NC(=O)N1CCN(C3CCN(C(=O)c4ccc(O)cc4)CC3)C1=O)c1cc(F)c(O)c(O)c1Cl)C2 (single isomer, unassigned) [Example 463]	< 1	> 5.00	< 1	< 1	< 1	< 1
O=C(O)c1c(F)ccc2c1OB(O)[C@@H](NC(=O)[C@H](NC(=O)N1CCN(C3CCN(C(=O)c4c(F)ccc(O)c4Cl)CC3)C1=O)c1cc(F)c(O)c(O)c1Cl)C2 (single isomer, unassigned) [Example 440]	< 1	> 5.00	< 1	< 1	< 1	< 1
O=C(NCCN1CCN(C(=O)N[C@@H](C(=O)N[C@H]2Cc3ccc(F)c(C(=O)O)c3OB2O)c2ccc(P(=O)(O)O)cc2)C(=O)C1=O)c1ccc(O)c(O)c1Cl [Example 503, (R)-3-((R)-2-(4-(2-(2-chloro-3,4-dihydroxybenzamido)ethyl)-2,3-dioxopiperazine-1-carboxamido)-2-(4-phosphonophenyl)acetamido)-7-fluoro-2-hydroxy-3,4-dihydro-2H-benzo[e][1,2]oxaborinine-8-carboxylic acid]	< 1	> 5.00	< 1	< 1	< 1	< 1
O=C(O)c1c(F)ccc2c1OB(O)[C@@H](NC(=O)C(NC(=O)N1CCN(C3CCN(S(=O)(=O)Cc4cccc(O)c4)CC3)C(=O)C1=O)c1cc(F)c(O)c(O)c1Cl)C2 (stereo partly drawn) [Example 485, (3R)-3-(2-(2-chloro-5-fluoro-3,4-dihydroxyphenyl)-2-(4-(1-((3-hydroxybenzyl)sulfonyl)piperidin-4-yl)-2,3-dioxopiperazine-1-carboxamido)acetamido)-7-fluoro-2-hydroxy-3,4-dihydro-2H-benzo[e][1,2]oxaborinine-8-carboxylic acid]	< 1	> 5.00	< 1	2 to 4 (≈ 2.39 to 4.78 µM)	< 1	< 1
O=C(O)c1c(F)ccc2c1OB(O)[C@@H](NC(=O)[C@H](NC(=O)N1CCN(C3CCN(C(=O)c4ccc(O)c(O)c4Cl)CC3)C1=O)c1ccc(P(=O)(O)O)cc1)C2 [Example 494, (R)-3-((R)-2-(3-(1-(2-chloro-3,4-dihydroxybenzoyl)piperidin-4-yl)-2-oxoimidazolidine-1-carboxamido)-2-(4-phosphonophenyl)acetamido)-7-fluoro-2-hydroxy-3,4-dihydro-2H-benzo[e][1,2]oxaborinine-8-carboxylic acid]	8 to 16 (≈ 9.95 to 19.9 µM)	> 5.00	< 1	< 1	< 1	< 1
O=C(O)c1c(F)ccc2c1OB(O)[C@@H](NC(=O)C(NC(=O)N1CCN(C3CCN(C(=O)Nc4cc(O)ccc4Cl)CC3)C(=O)C1=O)c1cc(F)c(O)c(O)c1Cl)C2 (stereo partly drawn) [Example 483, (3R)-3-(2-(2-chloro-5-fluoro-3,4-dihydroxyphenyl)-2-(4-(1-((2-chloro-5-hydroxyphenyl)carbamoyl)piperidin-4-yl)-2,3-dioxopiperazine-1-carboxamido)acetamido)-7-fluoro-2-hydroxy-3,4-dihydro-2H-benzo[e][1,2]oxaborinine-8-carboxylic acid]	2 to 4 (≈ 2.39 to 4.79 µM)	> 5.00	2 to 4 (≈ 2.39 to 4.79 µM)	32 to 64 (≈ 38.3 to 76.6 µM)	2 to 4 (≈ 2.39 to 4.79 µM)	< 1
O=C(O)c1c(F)ccc2c1OB(O)[C@@H](NC(=O)[C@H](NC(=O)N1CCN(C3CCN(Cc4ccncc4)CC3)C1=O)c1cc(F)c(O)c(O)c1Cl)C2 [Example 493, (R)-3-((R)-2-(2-chloro-5-fluoro-3,4-dihydroxyphenyl)-2-(2-oxo-3-(1-(pyridin-4-ylmethyl)piperidin-4-yl)imidazolidine-1-carboxamido)acetamido)-7-fluoro-2-hydroxy-3,4-dihydro-2H-benzo[e][1,2]oxaborinine-8-carboxylic acid]	< 1	> 5.00	2 to 4 (≈ 2.74 to 5.49 µM)	< 1	< 1	< 1
O=C(O)c1c(F)ccc2c1OB(O)[C@@H](NC(=O)[C@H](NC(=O)N1CCN(C3CCN(C(=O)Nc4cccc(O)c4Cl)CC3)C1=O)c1cc(F)c(O)c(O)c1Cl)C2 [Example 447, (R)-3-((R)-2-(3-(1-((2-chloro-3-hydroxyphenyl)carbamoyl)piperidin-4-yl)-2-oxoimidazolidine-1-carboxamido)-2-(2-chloro-5-fluoro-3,4-dihydroxyphenyl)acetamido)-7-fluoro-2-hydroxy-3,4-dihydro-2H-benzo[e][1,2]oxaborinine-8-carboxylic acid]	< 1	> 5.00	< 1	< 1	< 1	< 1
O=C(O)c1c(F)ccc2c1OB(O)[C@@H](NC(=O)[C@H](NC(=O)N1CCN(Cc3ccc(O)c(O)c3Cl)C(=O)C1=O)c1cc(F)c(P(=O)(O)O)c(F)c1)C2 [Example 502, (R)-3-((R)-2-(4-(2-chloro-3,4-dihydroxybenzyl)-2,3-dioxopiperazine-1-carboxamido)-2-(3,5-difluoro-4-phosphonophenyl)acetamido)-7-fluoro-2-hydroxy-3,4-dihydro-2H-benzo[e][1,2]oxaborinine-8-carboxylic acid]	2 to 4 (≈ 2.59 to 5.19 µM)	> 5.00	< 1	< 1	< 1	< 1
O=C(O)c1c(F)ccc2c1OB(O)[C@@H](NC(=O)C(NC(=O)N1CCN(C3CCN(C(=O)Nc4ccc(Cl)c(O)c4F)CC3)C(=O)C1=O)c1cc(F)c(O)c(O)c1Cl)C2 (stereo partly drawn) [Example 489, (3R)-3-(2-(4-(1-((4-chloro-2-fluoro-3-hydroxyphenyl)carbamoyl)piperidin-4-yl)-2,3-dioxopiperazine-1-carboxamido)-2-(2-chloro-5-fluoro-3,4-dihydroxyphenyl)acetamido)-7-fluoro-2-hydroxy-3,4-dihydro-2H-benzo[e][1,2]oxaborinine-8-carboxylic acid]	< 1	> 5.00	< 1	2 to 4 (≈ 2.34 to 4.69 µM)	2 to 4 (≈ 2.34 to 4.69 µM)	< 1
O=C(O)c1c(F)ccc2c1OB(O)[C@@H](NC(=O)[C@H](NC(=O)N1CCN(C3CCN(C(=O)c4cccc(O)c4Cl)CC3)C1=O)c1cc(F)c(O)c(O)c1Cl)C2 (single isomer, unassigned) [Example 432]	< 1	> 5.00	< 1	< 1	< 1	< 1
O=C(O)c1c(F)ccc2c1OB(O)[C@@H](NC(=O)[C@H](NC(=O)N1CCN(Cc3ccc(O)c(O)c3Cl)C(=O)C1=O)c1cccc(P(=O)(O)O)c1)C2 (single isomer, unassigned) [Example 163]	< 1	> 5.00	< 1	< 1	2 to 4 (≈ 2.72 to 5.44 µM)	< 1
O=C(O)c1c(F)ccc2c1OB(O)[C@@H](NC(=O)[C@H](NC(=O)N1CCN(C3CCN(C(=O)c4cc(O)ccc4F)CC3)C1=O)c1cc(F)c(O)c(O)c1Cl)C2 (single isomer, unassigned) [Example 433]	< 1	> 5.00	< 1	< 1	< 1	< 1
